Earlier results on one molecule are cited in US10098846B2, “Drug-containing particulate composition with cationic agent, associated medical devices, and methods for treatment” (Surmodics, Inc., priority 2016, dated 2018).

With `CO[C@H]1C[C@@H]2CC[C@@H](C)[C@@](O)(O2)C(=O)C(=O)N2CCCC[C@H]2C(=O)O[C@H]([C@H](C)C[C@@H]2CC[C@@H](O)[C@H](OC)C2)CC(=O)[C@H](C)/C=C(\C)[C@@H](O)[C@@H](OC)C(=O)[C@H](C)C[C@H](C)/C=C/C=C/C=C/1C` [Rapamycin, rapamycin], the “solubility in N,N-dimethylformamide” value (N,N-dimethylformamide) was “soluble”. Also, the solubility in acetone entry (acetone) is recorded as “soluble”. The solubility in ether result (ether) is recorded as “soluble”. Besides, the solubility in water entry (water) is on record as “insoluble”.
